Reference: ChEMBL document CHEMBL4373734, “Overcoming imatinib resistance in chronic myelogenous leukemia cells using non-cytotoxic cell death modulators” (Eur J Med Chem, 2020)
Active and inactive are the calls of the source. The calls are words filed in the database; no cut-off is given here.

Tests used:
[1] = molecular target: T1, Peroxisome proliferator-activated receptor gamma (Homo sapiens, UniProt P37231); assay: Transactivation of Gal4-fused human PPARgamma transfected in COS7 cells co-transfected with pGAL5-TK-pGL3 and pRennilla-CMV incubated for 39 hrs by dual luciferase reporter assay; assay type: cell-based
T1 sequence (P37231 whole entry): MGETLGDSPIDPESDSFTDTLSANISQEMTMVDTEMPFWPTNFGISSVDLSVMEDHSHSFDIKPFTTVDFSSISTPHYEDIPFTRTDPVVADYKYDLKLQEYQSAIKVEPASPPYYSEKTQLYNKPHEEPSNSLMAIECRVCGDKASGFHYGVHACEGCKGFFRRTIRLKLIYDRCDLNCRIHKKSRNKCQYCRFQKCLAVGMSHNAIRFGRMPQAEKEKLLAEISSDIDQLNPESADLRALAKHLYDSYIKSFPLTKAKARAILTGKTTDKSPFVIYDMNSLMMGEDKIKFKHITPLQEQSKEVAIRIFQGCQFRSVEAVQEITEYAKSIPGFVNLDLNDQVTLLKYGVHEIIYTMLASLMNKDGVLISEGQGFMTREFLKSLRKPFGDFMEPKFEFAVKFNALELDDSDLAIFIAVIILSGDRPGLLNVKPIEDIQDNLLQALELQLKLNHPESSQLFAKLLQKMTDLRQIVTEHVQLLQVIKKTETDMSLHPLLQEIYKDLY

[2] = molecular target: T2, Peroxisome proliferator-activated receptor gamma (Homo sapiens) (UniProt P37231); assay: Transactivation of Gal4-fused human PPARgamma transfected in COS7 cells co-transfected with pGAL5-TK-pGL3 and pRennilla-CMV assessed as maximum intrinsic activation at 10 uM incubated for 39 hrs by dual luciferase reporter assay relative to pioglitazone; assay type: cell-based
T2 sequence (whole entry): T1 sequence (P37231 whole entry)

[3] = molecular target: T2, Peroxisome proliferator-activated receptor gamma (Homo sapiens); assay: Transactivation of Gal4-fused human PPARgamma transfected in COS7 cells co-transfected with pGAL5-TK-pGL3 and pRennilla-CMV assessed as maximum intrinsic activation at 20 uM incubated for 39 hrs by dual luciferase reporter assay; assay type: cell-based
K562-IMA[r] [4] = assay: Induction of sensitization to imatinib-induced cytotoxicity in imatinib-resistant human K562-IMA[r] cells assessed as induction of cell death at 10 uM after 72 hrs in presence of 1 uM imatinib by propidium iodide/Triton-X100 dye based FACS analysis; assay type: functional
[5] = Solubility of compound in water at >20 uM; assay type: physicochemical; conditions: buffer
K562-IMA[r] [6] = assay: Cytotoxicity against imatinib-resistant human K562-IMA[r] cells assessed as induction of cell death at 10 uM after 72 hrs by propidium iodide/Triton-X100 dye based FACS analysis relative to control
K562-IMA[r] [7] = assay: Induction of sensitization to imatinib induced cytotoxicity in imatinib-resistant human K562-IMA[r] cells assessed as cell death up to 2.5 uM measured after 72 hrs in presence of 1 uM imatinib by propidium iodide/Triton-X100 dye based FACS analysis; assay type: functional
K562-IMA[r] [8] = assay: Induction of sensitization to imatinib-induced cytotoxicity in imatinib-resistant human K562-IMA[r] cells assessed as gain in cell death rate at 5 uM measured after 72 hrs in presence of 1 uM imatinib by propidium iodide/Triton-X100 dye based FACS analysis relative to imatinib-treated control; assay type: functional
[9] = Cytotoxicity against human HS5 cells assessed as cell death at 10 uM after 72 hrs by propidium iodide/Triton-X100 dye based FACS analysis
K562 = assay: Cytotoxicity against human K562 cells assessed as cell death at 10 uM after 72 hrs by propidium iodide/Triton-X100 dye based FACS analysis; conditions: k562, 72 h
COS-7 = assay: Cytotoxicity against African green monkey COS7 cells assessed as effect on cell metabolic activity at 20 uM after 72 hrs by MTT assay; assay type: ADME, cell-based; conditions: chlorocebus aethiops, cos-7, 72 h
K562-IMA[r] [10] = assay: Induction of sensitization to imatinib-induced cytotoxicity in imatinib-resistant human K562-IMA[r] cells assessed as induction of cell death at 10 uM after 72 hrs in presence of 1 uM imatinib by propidium iodide/Triton-X100 dye based FACS analysis (reference value: 15%); assay type: functional
K562-IMA[r] [11] = assay: Induction of sensitization to imatinib-induced cytotoxicity in imatinib-resistant human K562-IMA[r] cells assessed as induction of cell death measured after 72 hrs in presence of 1 uM imatinib by propidium iodide/Triton-X100 dye based FACS analysis; assay type: functional
[12] = Solubility of compound in DMSO at 10 uM by microscopic analysis; assay type: physicochemical
K562-IMA[r] [13] = assay: Cytotoxicity against imatinib-resistant human K562-IMA[r] cells assessed as cell death at 10 uM after 72 hrs by propidium iodide/Triton-X100 dye based FACS analysis
[14] = molecular target: T2, Peroxisome proliferator-activated receptor gamma (Homo sapiens); assay: Transactivation of Gal4-fused human PPARgamma transfected in COS7 cells co-transfected with pGAL5-TK-pGL3 and pRennilla-CMV at 20 uM incubated for 39 hrs by dual luciferase reporter assay; assay type: cell-based

Compound	EC50 [1] [µM]	Intrinsic activity [2] [%]	Intrinsic activity [3]	Activity (K562-IMA[r] [4])	solubility [5]	Activity (K562-IMA[r] [6]) [%]	Activity (K562-IMA[r] [7])	Activity (K562-IMA[r] [8]) [%]	Activity [9]	Activity (K562)	Activity (COS-7)	Activity (K562-IMA[r] [10])	Activity (K562-IMA[r] [11])	solubility [12]	Activity (K562-IMA[r] [13])	Activity [14]
CCCc1nc2c(C)cc(-c3nc4ccccc4n3C)cc2n1Cc1ccc(-c2ccccc2C(=O)O)cc1 [TELMISARTAN]	4.28	59.1	78%	Active	–	–	–	–	–	–	–	–	–	–	–	–
CCCc1nc2c(C)cccc2n1Cc1ccc(-c2ccccc2C(N)=O)cc1	–	19.6	inactive	–	Insoluble	< 20	inactive	11.2	Non-Toxic	Non-Toxic	Non-Toxic	62 - 78%	Dose-dependent effect	Soluble	–	–
CCCc1nc2c([N+](=O)[O-])cccc2n1Cc1ccc(-c2ccccc2C(=O)O)cc1	–	0.42	–	Active	–	–	–	–	Non-Toxic	Non-Toxic	Non-Toxic	–	–	Soluble	Non-Toxic	–
CCCc1nc2c([N+](=O)[O-])cccc2n1Cc1ccc(-c2ccccc2C(N)=O)cc1	–	7.15	inactive	Active	Insoluble	–	–	–	Non-Toxic	Non-Toxic	Non-Toxic	–	–	Soluble	Non-Toxic	–
CCCc1nc2c(N)cccc2n1Cc1ccc(-c2ccccc2C(N)=O)cc1	–	25.1	inactive	Active	Insoluble	–	–	–	Non-Toxic	Non-Toxic	Non-Toxic	–	–	Soluble	Non-Toxic	–
CCCc1nc2c(F)cccc2n1Cc1ccc(-c2ccccc2C(N)=O)cc1	–	33.3	inactive	–	Insoluble	< 20	inactive	8.1	Non-Toxic	Non-Toxic	Non-Toxic	62 - 78%	Dose-dependent effect	Soluble	–	–
CCCc1nc2c(Cl)cccc2n1Cc1ccc(-c2ccccc2C(N)=O)cc1	–	21.1	inactive	–	Insoluble	< 20	inactive	15.3	Non-Toxic	Non-Toxic	Non-Toxic	62 - 78%	Dose-dependent effect	Soluble	–	–
CCCc1nc2c(N)cccc2n1Cc1ccc(-c2ccccc2C(=O)O)cc1	–	15.7	–	Active	–	–	–	–	Non-Toxic	Non-Toxic	Non-Toxic	–	–	Soluble	Non-Toxic	–
CCCc1nc2c(C(F)(F)F)cccc2n1Cc1ccc(-c2ccccc2C(N)=O)cc1	–	19.5	inactive	–	Insoluble	< 20	inactive	7.1	Non-Toxic	Non-Toxic	Non-Toxic	62 - 78%	Dose-dependent effect	Soluble	–	–
CCCc1nc2ccccc2n1Cc1ccc(-c2ccccc2C(=O)O)cc1	7.22	58.5	–	Active	–	–	–	–	Non-Toxic	Non-Toxic	Non-Toxic	–	–	Soluble	Non-Toxic	Active
CCCc1nc2c(Br)cccc2n1Cc1ccc(-c2ccccc2C(=O)O)cc1	8.25	44.9	–	Active	–	–	–	–	Non-Toxic	Non-Toxic	Non-Toxic	–	–	Soluble	Non-Toxic	Active
CCCc1nc2c(F)cccc2n1Cc1ccc(-c2ccccc2C(=O)O)cc1	8.66	44.2	–	Active	–	–	–	–	Non-Toxic	Non-Toxic	Non-Toxic	–	–	Soluble	Non-Toxic	Active
CCCc1nc2c(O)cccc2n1Cc1ccc(-c2ccccc2C(=O)O)cc1	–	14.4	–	Active	–	–	–	–	Non-Toxic	Non-Toxic	Non-Toxic	–	–	Soluble	Non-Toxic	–
CCCc1nc2c(Cl)cccc2n1Cc1ccc(-c2ccccc2C(=O)O)cc1	8.67	44	–	Active	–	–	–	–	Non-Toxic	Non-Toxic	Non-Toxic	–	–	Soluble	Non-Toxic	Active
CCCc1nc2c(O)cccc2n1Cc1ccc(-c2ccccc2C(N)=O)cc1	–	20.5	inactive	Active	Insoluble	–	–	–	Non-Toxic	Non-Toxic	Non-Toxic	–	–	Soluble	Non-Toxic	–
CCCc1nc2c(OC)cccc2n1Cc1ccc(-c2ccccc2C(N)=O)cc1	–	13.3	inactive	Active	Insoluble	–	–	–	Non-Toxic	Non-Toxic	Non-Toxic	–	–	Soluble	Non-Toxic	–
CCCc1nc2c(OC)cccc2n1Cc1ccc(-c2ccccc2C(=O)O)cc1	–	17.9	–	Active	–	–	–	–	Non-Toxic	Non-Toxic	Non-Toxic	–	–	Soluble	Non-Toxic	–
CCCc1nc2c(C)cccc2n1Cc1ccc(-c2ccccc2C(=O)O)cc1	11.1	54.3	–	Active	–	–	–	–	Non-Toxic	Non-Toxic	Non-Toxic	–	–	Soluble	Non-Toxic	–
CCCc1nc2c(C(F)(F)F)cccc2n1Cc1ccc(-c2ccccc2C(=O)O)cc1	12.1	29.5	–	Active	–	–	–	–	Non-Toxic	Non-Toxic	Non-Toxic	–	–	Soluble	Non-Toxic	–
